{"source": "patent US20160113895A1", "about": "“Novel Use of Adapalene in Treating Esophageal Cancer and Gastrointestinal Stromal Tumor” (Biodelight Biotech Inc., priority 2013, published 2016)", "system": "A549 implanted tumors", "assay": "Subcutaneous A549 xenograft model, groups 2a-2c, o.p.", "conditions": "for Tumor inhibition rate (%): A549, o.p. once daily, Tarceva 20 mpk; for Tumor inhibition rate (%) / Body weight change (%): NSL-8 70 mpk; for Body weight change (%): A549 tumor-bearing mice, Tarceva 20 mpk o.p.", "protocol": "The antitumor efficacy of the drug lead nsl-8 searched was studied using the subcutaneous xenografted A549 and HCC827 lung cancer tumor models in vivo. […] Mice were maintained in individual ventilated cages (IVC, max. 4 mice/cage) at constant temperature and humidity. Animal weights were determined three times (Monday, Wednesday and Friday) for groups 1a and 1b or two times (Monday and Thursday) for groups 2a-2c and 3a-3c animals. Animal behaviour was monitored daily.\nOn day 0, either 2×10^6 A549 or 2×10^6 HCC827 tumor cells in 100 μL PBS were implanted into the subcutaneous space of the left flank of all corresponding BALB/c nude and SCID mice, respectively. In the following, tumor sizes were determined by caliper measurement. Tumor sizes were calculated according to the formula W^2×Lg/2 (Lg=length and W=the perpendicular width of the tumor, L>W). On day 48 or 30, after mean tumor volumes had reached approx. 100 mm^3, the corresponding tumor-bearing animals were randomized into 2 groups of 8 (A549 model: groups 1a and 1b) or 10 animals (A549 model: groups 2a and 2b) according to tumor sizes. On day 24 or 28, after mean tumor volumes had reached approx. 100 mm^3, the corresponding tumor-bearing animals were randomized into 2 groups of 10 animals (HCC827 model: groups 3a and 3b) according to tumor sizes. […] The percentage of tumor growth inhibition (TGI) was calculated using the following formula: […]\nwhere T and C represent the mean tumor volume of the treatment and the control group, respectively.\nThe solution was aliquoted into several 15 ml sterile centrifuge tubes in 650 μl quantity per tube and then stored frozen at −80° C. until use. […] Animals of group 1b received 40 mg/kg nsl-8 dosage solution once daily through i.p. route on days 48-52 and 62-66, while those of groups 2b and 3b received 70 mg/kg nsl-8 dosage solution once daily through o.p. route on days 1-14 (group 2b) and days 1-14 (group 3b), respectively (Table 4).\nGroups 1a and 1b (A549 model) were terminated on day 69, while groups 2a-2c (A549 model) and 3a-3c (HCC827 model) were terminated on day 15. At necropsy, animals were killed by cervical dislocation. Primary tumor weights and volumes were determined. The tumor volume and weight were analysed using descriptive data analysis (Mean, SEM, Median). Statistical analysis of efficacy data was performed using the unpaired t-test. All the data analyses were performed using GraphPad Prism 5 from GraphPad Software, Inc., San Diego, USA.\nThe serum level of blood urea nitrogen (BUN) was measured for assessing the renal function while those of alanine aminotransferase (ALT) and aspartate aminotransferase (AST) were measured using Ektachem DT system (Johnson & Johnson Clinical Diagnostics) for assessing the liver function. The EDTA treated anticoagulated blood samples were also collected for making a complete peripheral blood count by using a Hematology Analyzer (Sysmex, XT-1800i).\nFor this study, 0.161 ml nsl-8 stock solution made in DMSO was mixed with 1.339 ml 0.9% w/v saline so that the volume of a final dosage solution prepared to feed an animal was 1.5 ml and containing 10% DMSO. Therefore, both administration routes and vehicles used in treating groups 2a-2b and 3a-3b animals were quite different from that used in treating groups 1a-1b animals."}
{"smiles": "COc1ccc(-c2ccc3cc(C(=O)O)ccc3c2)cc1C12CC3CC(CC(C3)C1)C2", "note": "[nsl-8, 6-[3-(1-adamantyl)-4-methoxyphenyl]-2-naphthalenecarboxylic acid]", "values": [{"measurement": "cell counts of white blood cell, red blood cell, or platelet versus vehicle", "setting": "A549 model, peripheral blood at end-point, nsl-8 70 mg/kg, Tarceva 20 mg/kg o.p.", "result": "no significant difference"}, {"measurement": "serum levels of BUN, ALT, and AST among treatment groups", "setting": "A549 model, upon completion of the experiments", "result": "no significant difference"}, {"measurement": "Tumor inhibition rate (%)", "setting": "Day 0", "result": 0, "unit": "%"}, {"measurement": "Body weight change (%)", "setting": "Day 0", "result": 0, "unit": "%"}, {"measurement": "Tumor inhibition rate (%)", "setting": "Day 3", "result": 7.1, "unit": "%"}, {"measurement": "Body weight change (%)", "setting": "Day 3", "result": "−1.9", "unit": "%"}, {"measurement": "Tumor inhibition rate (%)", "setting": "Day 7", "result": 12.0, "unit": "%"}, {"measurement": "Body weight change (%)", "setting": "Day 7", "result": "−1.3", "unit": "%"}, {"measurement": "Tumor inhibition rate (%)", "setting": "Day 10", "result": 17.8, "unit": "%"}, {"measurement": "Body weight change (%)", "setting": "Day 10", "result": "−2.6", "unit": "%"}, {"measurement": "Tumor inhibition rate (%)", "setting": "Day 14", "result": 19.1, "unit": "%"}, {"measurement": "Body weight change (%)", "setting": "Day 14", "result": "−2.0", "unit": "%"}, {"measurement": "decline of body weight upon completion of the experiments", "setting": "group 2b, 70 mg/kg daily o.p.", "result": 2.0, "unit": "%"}]}
